# In article PMC10584170, “Machine learning-based phenotypic imaging to characterise the targetable biology of Plasmodium falciparum male gametocytes for the development of transmission-blocking antimalarials” (PLOS Pathogens, 2023):
# Assays:
# [1] = tested on: P. falciparum female gametocytes; assay: P. falciparum Dual Gamete Formation Assay (PfDGFA), female readout (Pfs25-positive female gametes); assay type: cell-based, Plasmodium falciparum NF54; settings: for Average inhibition female (%): average of replicates; for % inhibition female (individual replicates) R1: replicate R1; for % inhibition female (individual replicates) R3: replicate R3; for % inhibition female (individual replicates) R4: replicate R4
# In short: (§1)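 Read-outs are automated image counts of exflagellation centres (brightfield, 10 frames over 1 s) and Pfs25-positive female gametes (Cy3 fluorescence).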
# [2] = tested on: P. falciparum male gametocytes; assay: P. falciparum Dual Gamete Formation Assay (PfDGFA), male readout (exflagellation); assay type: cell-based, Plasmodium falciparum NF54; settings: for Average inhibition male (%): average of replicates; for % inhibition male (individual replicates) R1: replicate R1; for % inhibition male (individual replicates) R3: replicate R3; for % inhibition male (individual replicates) R4: replicate R4; for Activity: hit = >50% inhibition in male or female readout in at least 3 replicates, 0 = no class assigned
# In short: as §1
# [3] = 2µM, 24h preincubation with gametocytes prior to induction of gametogenesis
# [4] = 2µM, 24h preincubation, hits selected on >50% inhibition in the female readout across replicates
# [5] = 2µM, 24h preincubation, hits selected on >50% inhibition in the male readout across replicates
# [6] = PfDGFA at 2µM, 24h preincubation
# [7] = PfDGFA at 2µM, 24h preincubation with gametocytes prior to induction of gametogenesis
# [8] = PfDGFA at 2µM, 24h preincubation with gametocytes
SMILES,"% inhibition female (individual replicates) R1 [1, 7] [%]","% inhibition female (individual replicates) R3 [1, 7] [%]","% inhibition female (individual replicates) R4 [1, 7] [%]","Average inhibition female (%) [1, 6] [%]","% inhibition male (individual replicates) R1 [2, 7] [%]","% inhibition male (individual replicates) R4 [2, 7] [%]","Average inhibition male (%) [2, 6] [%]","% inhibition male (individual replicates) R3 [2, 7] [%]",other results
CC(C)(C)c1ccc(-c2cc3c(ccc4nc(N)nc(N)c43)[nH]2)cc1 [TCMDC-137977],,,,,,,,,"Average inhibition female (%) [1, 3]: 6.0%; % inhibition female (individual replicates) R1 [1, 3]: 2.7%; % inhibition female (individual replicates) R3 [1, 3]: -16.6%; % inhibition female (individual replicates) R4 [1, 3]: 37.6%; HitlevelF [1, 4]: 0; Average inhibition male (%) [2, 3]: 2.0%; % inhibition male (individual replicates) R1 [2, 3]: 6.1%; % inhibition male (individual replicates) R3 [2, 3]: 0.4%; % inhibition male (individual replicates) R4 [2, 3]: -0.46%; HitlevelM [2, 5]: 0; Activity [2, 6]: 0"
Nc1nc(N)c2c(ccc3c2ccn3Cc2ccccn2)n1 [TCMDC-137980],1.3,-9.6,4.7,-4.0,-11.9,-51.4,-22.7,,
C=CCn1ccc2c3c(N)nc(N)nc3ccc21 [TCMDC-137995],-8.1,-14.1,22.9,-3.2,38.6,16.7,27.9,29.0,
CCCN(CCC)CCCN(CCCN(CCC)CCC)c1cc(C)nc(Nc2ccc3cc(Br)ccc3c2)n1.Cl [TCMDC-138006],,,,,,,,,"Average inhibition female (%) [1, 8]: 38.7%; % inhibition female (individual replicates) R1 [1, 8]: 42.6%; % inhibition female (individual replicates) R3 [1, 8]: 25.8%; % inhibition female (individual replicates) R4 [1, 8]: 40.6%; HitlevelF ([1]; number of replicates with >50% inhibition in the female readout, 2µM): 0; Average inhibition male (%) [2, 8]: 65.9%; % inhibition male (individual replicates) R1 [2, 8]: 64.4%; % inhibition male (individual replicates) R3 [2, 8]: 70.2%; % inhibition male (individual replicates) R4 [2, 8]: 75.1%; HitlevelM ([2]; number of replicates with >50% inhibition in the male readout, 2µM): 4"
Cc1ccc2ccncc2c1N [TCMDC-138025],-5.1,-43.7,-6.6,-17.6,6.2,37.3,29.9,45.8,
Cc1c(Cc2ccc(C(C)C)cc2)cnc2nc(N)nc(N)c12 [TCMDC-138044],2.8,-15.2,-3.9,-2.8,10.0,-19.8,-5.8,-13.9,
COc1ccc(Cc2cnc3nc(N)nc(N)c3c2C)cc1OC.O=S(=O)(O)CCO [TCMDC-138057],,,,,,,,,"Average inhibition female (%) [1, 3]: 4.5%; % inhibition female (individual replicates) R1 [1, 3]: 12.4%; % inhibition female (individual replicates) R3 [1, 3]: -12.7%; % inhibition female (individual replicates) R4 [1, 3]: 12.4%; HitlevelF [1, 4]: 0; Average inhibition male (%) [2, 3]: -16.7%; % inhibition male (individual replicates) R1 [2, 3]: 13.3%; % inhibition male (individual replicates) R3 [2, 3]: -15.1%; % inhibition male (individual replicates) R4 [2, 3]: -55.1%; HitlevelM [2, 5]: 0; Activity [2, 6]: 0"
COc1cccc(Cc2cnc3nc(N)nc(N)c3c2C)c1 [TCMDC-138060],-4.3,-2.0,3.5,-1.4,14.7,-36.5,7.0,,
COc1ccc(Cc2c(N)nc3nc(N)nc(N)c3c2C)cc1.Cl [TCMDC-138061],-3.3,4.2,-0.2,0.4,17.1,-37.2,0.0933,,
